Test results as given in paper PMC8746493, “Co-Inhibition of P-gp and Hsp90 by an Isatin-Derived Compound Contributes to the Increase of the Chemosensitivity of MCF7/ADR-Resistant Cells to Doxorubicin” (Molecules, 2021).

Target: T1, Hsp90α (Homo sapiens, UniProt P07900)
T1 construct: gene HSP90AA1; full length protein
Assay: SPR (Biacore […], immobilized recombinant Hsp90α)
Type: binding

Kd: 41.2 ± 2.1 nM
SMILES: O=C(CN1C(=O)NC(c2ccccc2)(c2ccccc2)C1=O)NN=C1C(=O)Nc2ccc(F)cc21 [compound 16, HAA2021]
